“Also recorded” adds a separate entry of the source. Values belong to the compound of their own block, whether it stands above or below them.
Tests used:
[1] = biological target: T1, G. gallus AIR carboxylase (Gallus gallus, UniProt P38024); conditions: cited from earlier work
T1 sequence (P38024 1-426): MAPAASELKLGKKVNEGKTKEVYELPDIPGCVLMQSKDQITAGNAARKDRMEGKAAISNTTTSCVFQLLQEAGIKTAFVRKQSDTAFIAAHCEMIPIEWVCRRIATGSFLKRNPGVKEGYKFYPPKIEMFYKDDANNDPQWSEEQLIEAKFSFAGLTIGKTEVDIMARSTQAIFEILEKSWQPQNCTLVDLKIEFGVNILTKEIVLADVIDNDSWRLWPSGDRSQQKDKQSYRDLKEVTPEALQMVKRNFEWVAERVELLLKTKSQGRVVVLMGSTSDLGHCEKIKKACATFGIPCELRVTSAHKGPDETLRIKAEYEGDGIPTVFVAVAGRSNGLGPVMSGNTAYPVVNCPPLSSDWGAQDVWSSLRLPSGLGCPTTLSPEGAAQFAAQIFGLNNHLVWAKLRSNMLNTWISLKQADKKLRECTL

N^5-CAIR mutase = conditions: fungal and bacterial N^5-CAIR mutase; cited from earlier work
[2] = biological target: T1, G. gallus AIR carboxylase; experiment: Inhibition of AIR carboxylase, CAIR decarboxylation assay; assay type: biochemical, G. gallus (chicken)
[3] = biological target: T1, G. gallus AIR carboxylase; experiment: Test as alternative substrates for AIR carboxylase; assay type: biochemical; conditions: UV and HPLC analysis

SMILES: Nc1c([N+](=O)[O-])ncn1[C@@H]1O[C@H](COP(=O)(O)O)[C@@H](O)[C@H]1O [Compound 3, 4-nitro-5-aminoimidazole ribonucleotide]
fold tighter affinity for the enzyme than CAIR ([1]; compared with CAIR): 10,000 fold | type of inhibition / kinetics ([1]; listed as NAIR): slow, tight binding inhibitor; also recorded: slow, tight-binding kinetics | type of inhibition (N^5-CAIR mutase): steady-state competitive inhibitor

fold difference in binding affinity, CAIR into CAPzR ([2]; compared to CAIR): 3 fold | binding affinity relative to CAIR ([2]; in words): greater affinity than CAIR
SMILES: Nc1c(C(=O)O)cnn1[C@@H]1O[C@H](COP(=O)(O)O)[C@@H](O)[C@H]1O [Compound 8, 5-Amino-1-(β-D-ribofuranosyl)pyrazole-4-carboxylate 5′-phosphate]

SMILES: Nc1c(C(=O)O)nnn1[C@@H]1O[C@H](COP(=O)(O)O)[C@@H](O)[C@H]1O [Compound 10, 5-Amino-1-(β-D-ribofuranosyl)-1,2,3-triazole-4-carboxylate 5′-phosphate]
alternative substrate for the enzyme [3]: neither compound is an alternative substrate

— PMC2782746 (Bioorganic & medicinal chemistry, 2008)
